In patent US10837044B2, “Automated method for analyzing and interpreting an antimicrobial susceptibility” (FONDATION MEDITERRANEE INFECTION, priority 2014, dated 2020):

What was measured:
Experiment in all cases: antibiogram by diffusion on Mueller-Hinton agar with antibiotic wafers
Type in all cases: cell-based
Enterobacter aerogenes = details: Table C1, six wafers, disk loads of Table B
Experimental: (§1) The inoculum was prepared by making a suspension of bacteria directly from colonies put into solution in tubes of sterile water so that the solution presented accurate opacity as determined with a spectrophotometer equivalent to the opacity of a 0.5 standard in the McFarland range. This bacterial suspension concentration is standardized since a more concentrated inoculum would lead to smaller diameters for the inhibition zone, and vice versa.
(§2) The inoculum corresponds to concentrations of about 10^8 CFU/mL for Escherichia coli, Klebsiella pneumoniae, Proteus mirabilis, Klebsiella oxytoca, Enterobacter cloacea, Enterobacter aerogenes, Entercoccus faecalis, Pseudomonas aeruginosa, Staphylococcus aureus, and Staphylococcus epidermidis. These are the ten species bacteria that are encountered the most frequently in human pathologies.
(§3) 1.2) The bacterial sample was deposited on a solid culture medium in a petri dish having a diameter of 90 mm or in a square dish having a side of 120 mm, the medium being constituted by a Mueller-Hinton agar specific for (EUCAST) antibiograms. Ideally, it should be used in the 15 minutes (min) following preparation of the suspension.
(§4) Seeding was done by the method of diffusion on an agar medium by flooding in which excess bacterial suspension was added to the Mueller-Hinton agar. After homogenizing, excess liquid was discarded in order to avoid over-inoculating the dishes. It is necessary to wait beforehand for the surface of the agar to be dry in order to eliminate any trace of moisture encouraging bacterial invasion.
(§5) The disks of the antibiotic wafers were deposited within 15 min after inoculating the agar. The antibiotic impregnated disks were deposited using an automatic dispenser that placed the disks firmly on the surface of the inoculated and dried agar. The number of disks deposited per dish was limited because of inhibition zone overlap and in order to limit interference between antibiotics. It is important for the inhibition diameters to be measurable. The antibiograms were then incubated at 37° C. for 18 hours (h) to 24 h.
(§6) The antibiotic wafers were made of high quality absorbent paper with a diameter of 6 mm and they were impregnated with antibiotics at concentrations in the range 1 micrograms (μg) to 300 μg approximately, depending on the antibiotic.
(§7) In the examples below, reference disks were used as sold by the suppliers i2a (Montpellier, France), BD (Becton Dickinson, USA), Bio-Rad (Hercules, USA), Biomerieux (Marcy l′Etoile, France) containing the following antibiotics and carrying the following codes and the following doses: AMX (amoxicillin) 25 μg: AMC (amoxicillin-clavulanic acid) 20 μg-10 μg; GM for gentamicin, 15 μg; SXT (trimethoprim-sulfamethoxazole) 1.25/23.75 μg; TIC (ticarcillin) 75 μg; TCC (ticarcillin-clavulanic acid) […]; TZP (piperacillin-tazobactam) 75/10 μg; CAZ (ceftazidime) 30 μg; IMP or IPM (imipeneme) 10 μg; COL (colistin) 50 μg; FOX (cefoxitine) 30 μg; VAN (vancomycin) 30 μg; TEC (teicoplanin) 30 μg; CLI or DA (clindamycin) 2 μg; CRO (ceftriaxone) 30 μg; CIP (ciprofloxacin) 5 μg; OFX (ofloxacin) 5 μg; CTX (cefotaxime) 5 μg; AN or AK (amikacin) 30 μg; TM (tobramycin) 10 μg; FOX (cefoxitine) 30 μg; ATM (aztreonam) 30 μg; ERT (ertapenem) 10 μg; FF (fosfomycin) 200 μg; DO (doxycycline) 30 μg; K (kanamycin) 1000 μg; L (lincomycin) 15 μs; LNZ (linezolid) 10 μg; AN (nalidixic acid) 30 μg; NOR (norfloxacin) 10 μg; PT (pristinamycin) 15 μg; RA (rifampicin) 5 μg; and E (erythromycin) 15 μg.

Enterobacter cloacea = details: Table C1, six wafers, disk loads of Table B
Experimental: as §1, §2, §3, §4, §5, §6, §7

Klebsiella oxytoca = details: Table C1; K. oxytoca phenotype Wild; six wafers, disk loads of Table B
Experimental: as §1, §2, §3, §4, §5, §6, §7

Klebsiella pneumoniae = details: for resistance (I, R) or sensitivity (S): Table C1, six wafers, disk loads of Table B; for resistant (I/R) or sensitive (S): Table C2, sixteen wafers, square dish
Experimental: as §1, §2, §3, §4, §5, §6, §7

Pseudomonas aeruginosa = details: Table C1, six wafers, disk loads of Table B
Experimental: as §1, §2, §3, §4, §5, §6, §7

Escherichia coli = details: Table C2, square dish
Experimental: as §1, §2, §3, §4, §5, §6, §7

Entercoccus faecalis = details: Table C1, six wafers, disk loads of Table B
Experimental: as §1, §2, §3, §4, §5, §6, §7

Staphylococcus aureus = details: for resistance (I, R) or sensitivity (S): Table C1, six wafers, disk loads of Table B; for resistant (I/R) or sensitive (S): Table C2, sixteen wafers, square dish
Experimental: as §1, §2, §3, §4, §5, §6, §7

[1] = system: Staphylococcus epidermidis; details: Table C1, six wafers, disk loads of Table B
Experimental: as §1, §2, §3, §4, §5, §6, §7

[2] = K. pneumoniae phenotype Carbapenemase
[3] = K. pneumoniae phenotype Hl cephalosporinase
[4] = K. pneumoniae phenotype Hl penicillinase
[5] = K. pneumoniae phenotype Ll penicillinase
[6] = E. coli phenotype Cephalosporinase + R to fluoroquinolones + R to cotrimoxazole + partial R to aminosides, sixteen wafers
[7] = E. coli phenotype Hl penicillinase + R to fluoroquinolones + R to cotrimoxazole + partial R to aminosides, sixteen wafers
[8] = E. coli phenotype Wild, sixteen wafers in a rectangular grid
[9] = K. pneumoniae phenotype Cephalosporinase + R to aminosides + R to cotrimoxazole
[10] = S. aureus phenotype Methicillin resistant
[11] = S. aureus phenotype R to methicilline, R to aminosides, fluoroquinolones, to rifampicie, to macrolides and the like
[12] = S. epidermidis phenotype Methicillin resistant

Row | Molecule | resistance (I, R) or sensitivity (S) (Enterobacter aerogenes; E. aerogenes phenotype BSBL) | resistance (I, R) or sensitivity (S) (Enterobacter aerogenes; E. aerogenes phenotype Wild) | resistance (I, R) or sensitivity (S) (Enterobacter cloacea; E. cloacae phenotype BSBL) | resistance (I, R) or sensitivity (S) (Enterobacter cloacea; E. cloacae phenotype Wild) | resistance (I, R) or sensitivity (S) (Klebsiella oxytoca) | resistance (I, R) or sensitivity (S) (Klebsiella pneumoniae; K. pneumoniae phenotype BSBL) | resistance (I, R) or sensitivity (S) (Klebsiella pneumoniae; [2]) | resistant (I/R) or sensitive (S) (Escherichia coli; [6]) | resistant (I/R) or sensitive (S) (Escherichia coli; [7]) | resistant (I/R) or sensitive (S) (Escherichia coli; [8]) | resistant (I/R) or sensitive (S) (Klebsiella pneumoniae; [9]) | resistant (I/R) or sensitive (S) (Klebsiella pneumoniae; K. pneumoniae phenotype Wild) | resistance (I, R) or sensitivity (S) (Entercoccus faecalis; E. faecalis phenotype Atypical) | resistance (I, R) or sensitivity (S) (Entercoccus faecalis; E. faecalis phenotype Wild) | resistance (I, R) or sensitivity (S) (Staphylococcus aureus; [10]) | resistance (I, R) or sensitivity (S) (Staphylococcus aureus; S. aureus phenotype Wild) | resistant (I/R) or sensitive (S) (Staphylococcus aureus; [11]) | resistant (I/R) or sensitive (S) (Staphylococcus aureus; S. aureus phenotype Wild) | resistance (I, R) or sensitivity (S) [1, 12] | resistance (I, R) or sensitivity (S) ([1]; S. epidermidis phenotype Wild) | also measured
1 | piperacillin-tazobactam [TZP] | R | S | R | S | S | R/I | R |  |  |  |  |  |  |  |  |  |  |  |  |  | resistance (I, R) or sensitivity (S) (Klebsiella pneumoniae; [3]): I/R; resistance (I, R) or sensitivity (S) (Klebsiella pneumoniae; [4]): S/I/R; resistance (I, R) or sensitivity (S) (Klebsiella pneumoniae; [5]): R; resistance (I, R) or sensitivity (S) (Klebsiella pneumoniae; K. pneumoniae phenotype Wild): S; resistance (I, R) or sensitivity (S) (Pseudomonas aeruginosa; P. aeruginosa Abnormal phenotype): R/S; resistance (I, R) or sensitivity (S) (Pseudomonas aeruginosa; P. aeruginosa phenotype BSBL): I/R; resistance (I, R) or sensitivity (S) (Pseudomonas aeruginosa; P. aeruginosa phenotype Carbapenemase): R; resistance (I, R) or sensitivity (S) (Pseudomonas aeruginosa; P. aeruginosa phenotype Penicillinase): I/S; resistance (I, R) or sensitivity (S) (Pseudomonas aeruginosa; P. aeruginosa phenotype Selective imipenem permeability): S; resistance (I, R) or sensitivity (S) (Pseudomonas aeruginosa; P. aeruginosa phenotype Wild): S
2 | colistin | S | S | S | S | S | S | S | S | S | S | S | S |  |  |  |  |  |  |  |  | resistance (I, R) or sensitivity (S) (Klebsiella pneumoniae; [3]): S; resistance (I, R) or sensitivity (S) (Klebsiella pneumoniae; [4]): S; resistance (I, R) or sensitivity (S) (Klebsiella pneumoniae; [5]): S; resistance (I, R) or sensitivity (S) (Klebsiella pneumoniae; K. pneumoniae phenotype Wild): S
3 | teicoplanin [TEC] |  |  |  |  |  |  |  |  |  |  |  |  | S | S | S | S | S | S | S | S | 
4 | trimethoprim-sulfamethoxazole (cotrimoxazole) [SXT] |  |  |  |  |  |  |  | R | R | S | R | R |  |  | S | S | R | S | S | S | 
5 | gentamicin |  |  |  |  |  |  |  | R | R | S | R | R | S | S | S | S | R | S | S | S | 
6 | CN[C@H](CC(C)C)C(=O)N[C@H]1C(=O)N[C@@H](CC(N)=O)C(=O)N[C@H]2C(=O)N[C@H]3C(=O)N[C@H](C(=O)N[C@H](C(=O)O)c4cc(O)cc(O)c4-c4cc3ccc4O)[C@H](O)c3ccc(c(Cl)c3)Oc3cc2cc(c3O[C@@H]2O[C@H](CO)[C@@H](O)[C@H](O)[C@H]2O[C@H]2C[C@](C)(N)[C@H](O)[C@H](C)O2)Oc2ccc(cc2Cl)[C@H]1O [VAN, vancomycin] |  |  |  |  |  |  |  |  |  |  |  |  | S | S | S | S | S | S | S | S | 
